From ChEMBL document CHEMBL5053503 (J Med Chem, 2021)
Active and inactive are the calls of the source. The calls are words filed in the database; no cut-off is given here.

What was measured:
[1] = biological target: T1, 5-hydroxytryptamine receptor 1A (Homo sapiens, UniProt P08908); assay: Displacement of [3H][…] from human recombinant 5-HT1A receptor expressed in CHO cells measured after 60 to 90 mins by radioligand completion assay relative to control; assay type: cell-based
T1 sequence (P08908 whole entry): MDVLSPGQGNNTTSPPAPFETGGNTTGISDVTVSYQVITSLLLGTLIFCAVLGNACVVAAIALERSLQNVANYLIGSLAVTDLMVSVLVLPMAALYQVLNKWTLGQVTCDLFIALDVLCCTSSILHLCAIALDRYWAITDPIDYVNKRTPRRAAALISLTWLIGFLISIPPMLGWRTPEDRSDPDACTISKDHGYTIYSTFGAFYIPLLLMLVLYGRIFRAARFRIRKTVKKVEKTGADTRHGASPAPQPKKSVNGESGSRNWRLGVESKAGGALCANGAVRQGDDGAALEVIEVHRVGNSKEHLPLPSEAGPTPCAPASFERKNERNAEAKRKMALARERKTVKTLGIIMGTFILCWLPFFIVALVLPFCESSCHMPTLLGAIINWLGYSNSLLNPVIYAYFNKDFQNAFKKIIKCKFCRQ

[2] = biological target: T2, 5-hydroxytryptamine receptor 2B (Homo sapiens, UniProt P41595); assay: biochemical
T2 sequence (P41595 whole entry): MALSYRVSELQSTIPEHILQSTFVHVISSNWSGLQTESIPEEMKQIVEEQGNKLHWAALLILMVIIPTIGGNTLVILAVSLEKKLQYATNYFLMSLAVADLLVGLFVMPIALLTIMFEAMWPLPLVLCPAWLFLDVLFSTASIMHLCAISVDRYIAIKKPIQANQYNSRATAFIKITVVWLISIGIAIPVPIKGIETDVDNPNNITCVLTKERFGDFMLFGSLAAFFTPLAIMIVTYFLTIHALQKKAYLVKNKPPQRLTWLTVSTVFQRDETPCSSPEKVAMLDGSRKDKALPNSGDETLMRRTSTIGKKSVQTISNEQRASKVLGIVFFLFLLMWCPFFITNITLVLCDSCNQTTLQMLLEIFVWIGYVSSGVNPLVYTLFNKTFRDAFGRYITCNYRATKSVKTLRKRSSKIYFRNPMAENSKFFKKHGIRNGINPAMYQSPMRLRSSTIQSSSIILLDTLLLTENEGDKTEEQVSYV

[3] = AUCinfinity in Sprague-Dawley rat at 5 mg/kg, iv; assay type: ADME, organism-based; parameters: time infinity, dose 5 mg/kg, route iv; settings: in vivo
[4] = biological target: T2, 5-hydroxytryptamine receptor 2B; assay: Displacement of [125I](+/-)DOI from human recombinant 5-HT2B receptor expressed in CHO cells at 100 nM measured after 60 mins by radioligand completion assay relative to control; assay type: cell-based
[5] = Clearence in Sprague-Dawley rat at 5 mg/kg, iv; assay type: ADME, organism-based; settings: in vivo
[6] = biological target: 5-hydroxytryptamine receptor 1B (Rattus norvegicus) (UniProt P28564); assay: Displacement of [125I]CYP from rat cerebral cortex 5-HT1B receptor at 10 uM measured after 120 mins by radioligand completion assay relative to control; assay type: tissue-based
Chain of 5-hydroxytryptamine receptor 1B (Rattus norvegicus) (P28564 whole entry): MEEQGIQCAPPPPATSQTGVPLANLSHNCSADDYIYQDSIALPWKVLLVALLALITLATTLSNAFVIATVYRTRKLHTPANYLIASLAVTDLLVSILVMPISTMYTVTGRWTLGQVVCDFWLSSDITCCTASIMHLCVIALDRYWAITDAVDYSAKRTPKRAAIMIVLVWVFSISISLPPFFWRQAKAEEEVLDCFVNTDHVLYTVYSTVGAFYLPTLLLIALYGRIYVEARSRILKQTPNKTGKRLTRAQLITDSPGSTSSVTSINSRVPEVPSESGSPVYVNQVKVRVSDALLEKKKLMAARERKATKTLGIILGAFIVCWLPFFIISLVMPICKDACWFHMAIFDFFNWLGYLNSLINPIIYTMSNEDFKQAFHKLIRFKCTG

[7] = biological target: T3, 5-hydroxytryptamine receptor 2A (Homo sapiens, UniProt P28223); assay: Displacement of [125I](+/-)DOI from human recombinant 5-HT2A receptor expressed in HEK293 cells at 100 nM measured after 60 to 90 mins by radioligand completion assay relative to control; assay type: cell-based; settings: time 60-90 min
T3 sequence (P28223 whole entry): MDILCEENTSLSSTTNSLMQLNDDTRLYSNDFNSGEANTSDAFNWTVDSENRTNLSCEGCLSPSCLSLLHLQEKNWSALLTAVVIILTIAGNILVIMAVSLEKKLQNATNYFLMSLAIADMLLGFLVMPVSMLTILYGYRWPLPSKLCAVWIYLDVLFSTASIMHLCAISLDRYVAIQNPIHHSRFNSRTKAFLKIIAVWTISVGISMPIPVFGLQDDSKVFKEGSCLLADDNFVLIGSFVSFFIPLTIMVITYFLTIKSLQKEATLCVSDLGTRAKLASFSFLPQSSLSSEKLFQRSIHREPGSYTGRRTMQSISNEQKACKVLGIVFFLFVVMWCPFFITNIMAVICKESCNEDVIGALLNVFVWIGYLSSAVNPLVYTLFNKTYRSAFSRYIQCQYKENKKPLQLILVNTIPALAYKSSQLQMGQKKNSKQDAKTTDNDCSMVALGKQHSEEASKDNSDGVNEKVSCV

[8] = biological target: T2, 5-hydroxytryptamine receptor 2B; assay: Displacement of [125I](+/-)DOI from human recombinant 5-HT2B receptor expressed in CHO cells at 10 uM measured after 60 mins by radioligand completion assay relative to control; assay type: cell-based
[9] = biological target: T4, 5-hydroxytryptamine receptor 2C (Homo sapiens) (UniProt P28335); assay: Displacement of [125I](+/-)DOI from human recombinant 5-HT2C receptor expressed in CHO cells at 100 nM measured after 60 mins by radioligand completion assay relative to control; assay type: cell-based
T4 sequence (whole entry): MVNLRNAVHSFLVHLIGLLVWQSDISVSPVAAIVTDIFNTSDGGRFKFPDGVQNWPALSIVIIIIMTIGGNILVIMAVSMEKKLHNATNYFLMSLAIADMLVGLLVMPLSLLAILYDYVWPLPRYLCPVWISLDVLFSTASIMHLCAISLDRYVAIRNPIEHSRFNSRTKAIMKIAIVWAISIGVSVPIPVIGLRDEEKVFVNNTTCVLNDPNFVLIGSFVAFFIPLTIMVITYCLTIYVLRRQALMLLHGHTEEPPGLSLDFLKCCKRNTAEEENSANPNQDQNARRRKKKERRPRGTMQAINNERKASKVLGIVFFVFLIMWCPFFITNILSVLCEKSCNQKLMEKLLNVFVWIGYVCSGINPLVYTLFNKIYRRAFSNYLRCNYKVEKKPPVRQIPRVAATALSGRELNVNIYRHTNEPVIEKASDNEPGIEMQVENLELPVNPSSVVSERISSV

[10] = biological target: T3, 5-hydroxytryptamine receptor 2A; assay: Displacement of [3H]LSD from human recombinant 5-HT2A receptor expressed in HEK cells by radioligand completion assay relative to control; assay type: cell-based
[11] = biological target: T5, 5-hydroxytryptamine receptor 3A (Homo sapiens) (UniProt P46098); assay: Displacement of [3H]BRL43694 from human recombinant 5-HT3 receptor expressed in CHO cells at 10 uM measured after 120 mins by radioligand completion assay relative to control; assay type: cell-based
T5 sequence (whole entry): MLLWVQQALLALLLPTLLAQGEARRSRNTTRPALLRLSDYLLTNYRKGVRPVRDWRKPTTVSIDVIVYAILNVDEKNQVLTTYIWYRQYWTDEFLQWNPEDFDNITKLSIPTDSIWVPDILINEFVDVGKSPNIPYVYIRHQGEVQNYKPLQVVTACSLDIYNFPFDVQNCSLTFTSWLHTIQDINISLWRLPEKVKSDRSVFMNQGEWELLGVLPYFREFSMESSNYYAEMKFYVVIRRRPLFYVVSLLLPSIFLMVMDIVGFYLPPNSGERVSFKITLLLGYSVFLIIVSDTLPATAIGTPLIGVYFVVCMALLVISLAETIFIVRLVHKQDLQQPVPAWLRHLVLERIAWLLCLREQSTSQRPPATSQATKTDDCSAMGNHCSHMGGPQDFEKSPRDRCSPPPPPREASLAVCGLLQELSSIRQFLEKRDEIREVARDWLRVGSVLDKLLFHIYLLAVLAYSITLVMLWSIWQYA

[12] = biological target: T6, 5-hydroxytryptamine receptor 1A (Homo sapiens) (UniProt P08908); assay: Displacement of [3H][…] from human recombinant 5-HT1A receptor expressed in cells at 10 uM measured after 60 to 90 mins by radioligand completion assay relative to control; assay type: cell-based; settings: time 60-90 min
T6 sequence (whole entry): T1 sequence (P08908 whole entry)

[13] = Apparent volume of distributed in Sprague-Dawley rat at 5 mg/kg, iv; assay type: ADME, organism-based; settings: in vivo, read-out: Vz
[14] = biological target: T4, 5-hydroxytryptamine receptor 2C (Homo sapiens); assay: Displacement of [125I](+/-)DOI from human recombinant 5-HT2C receptor expressed in CHO cells at 10 uM measured after 60 mins by radioligand completion assay relative to control; assay type: cell-based
[15] = biological target: T6, 5-hydroxytryptamine receptor 1A (Homo sapiens); assay: Displacement of [3H][…] from human recombinant 5-HT1A receptor expressed in cells at 100 nM measured after 60 to 90 mins by radioligand completion assay relative to control; assay type: cell-based; settings: time 60-90 min
[16] = biological target: T7, 5-hydroxytryptamine receptor 2C (Homo sapiens, UniProt P28335); assay: biochemical
T7 sequence (P28335 whole entry): T4 sequence (whole entry)

[17] = biological target: T5, 5-hydroxytryptamine receptor 3A (Homo sapiens); assay: Displacement of [3H]BRL43694 from human recombinant 5-HT3 receptor expressed in CHO cells at 100 nM measured after 120 mins by radioligand completion assay relative to control; assay type: cell-based
[18] = biological target: T3, 5-hydroxytryptamine receptor 2A; assay: Displacement of [125I](+/-)DOI from human recombinant 5-HT2A receptor expressed in HEK293 cells at 10 uM measured after 60 to 90 mins by radioligand completion assay relative to control; assay type: cell-based; settings: time 60-90 min
Rattus norvegicus [19] = assay type: functional; settings: Sprague-Dawley, route ip, time 15 min
[20] = biological target: T2, 5-hydroxytryptamine receptor 2B; assay: Displacement of [3H]LSD from human recombinant 5-HT2B receptor expressed in CHO cells by radioligand completion assay relative to control; assay type: cell-based
[21] = biological target: T1, 5-hydroxytryptamine receptor 1A; assay: Displacement of [3H][…] from human recombinant 5-HT1A receptor expressed in HEK cells measured after 60 to 90 mins by radioligand completion assay relative to control; assay type: cell-based
[22] = biological target: 5-hydroxytryptamine receptor 7 (Homo sapiens, UniProt P34969); assay: biochemical
Chain of 5-hydroxytryptamine receptor 7 (P34969 whole entry): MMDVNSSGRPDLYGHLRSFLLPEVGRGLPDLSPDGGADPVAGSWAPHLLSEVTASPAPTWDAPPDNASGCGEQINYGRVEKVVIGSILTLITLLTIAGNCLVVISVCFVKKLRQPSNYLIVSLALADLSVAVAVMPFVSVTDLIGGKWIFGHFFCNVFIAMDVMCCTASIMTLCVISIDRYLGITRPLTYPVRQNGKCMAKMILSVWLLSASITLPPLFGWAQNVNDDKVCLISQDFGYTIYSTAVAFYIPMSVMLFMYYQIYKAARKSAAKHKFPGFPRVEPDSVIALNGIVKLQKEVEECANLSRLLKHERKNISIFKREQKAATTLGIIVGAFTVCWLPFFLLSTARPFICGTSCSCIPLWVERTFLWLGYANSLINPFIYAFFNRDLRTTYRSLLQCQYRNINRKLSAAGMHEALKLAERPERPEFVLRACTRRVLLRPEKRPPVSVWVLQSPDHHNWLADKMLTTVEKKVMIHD

Rattus norvegicus [23] = assay type: functional; settings: Sprague-Dawley, route iv
[24] = biological target: T1, 5-hydroxytryptamine receptor 1A; assay: Displacement of [3H]5-CT from human recombinant 5-HT1A receptor expressed in CHO cells measured after 60 to 90 mins by radioligand completion assay relative to control; assay type: cell-based
Rattus norvegicus [25] = assay type: functional; settings: Sprague-Dawley, route iv; remark: listed apart in the source
Rattus norvegicus [26] = assay type: functional, organism-based; settings: Sprague-Dawley, dose 1.0 mg/kg, route ip, time 15.0 min
[27] = AUCinfinity in Sprague-Dawley rat at […], iv; assay type: ADME, organism-based; settings: in vivo

| Compound | Ki [1] | Ki [2] | Activity [4] | Activity [6] | Activity [7] | Activity ([8]; filed as agonist) | Activity [9] | Ki [10] | Activity [11] | Activity ([12]; filed as agonist) | Activity [14] | Activity [15] | Ki [16] | Activity [17] | ED50 (Rattus norvegicus [19]) | ED50 (Rattus norvegicus [23]) | other results |
| --- | --- | --- | --- | --- | --- | --- | --- | --- | --- | --- | --- | --- | --- | --- | --- | --- | --- |
| CC[C@H]1CN2CCc3c([nH]c4cccc(O)c34)[C@@H]2C[C@@H]1/C(=C\OC)C(=O)OC | 294 nM | 508 nM |  |  |  |  |  |  |  |  |  |  |  |  |  |  |  |
| CC[C@@H]1CN2CCc3c([nH]c4cccc(OC)c34)[C@@H]2C[C@@H]1/C(=C\OC)C(=O)OC | 5880 nM | 1260 nM | 23% | 8.2% | -0.9% | 90.7% | -8.2% | 5010 nM | -12.7% | 76.7% | 14.7% | 9.7% | > 10000 nM | -9.1% | 26.8 mg/kg |  | AUC [3]: 849.8 ng·h/mL; CL [5]: 21.7 mL/min/kg; Vd [13]: 8 L/kg; Activity ([18]; filed as agonist): 49.9% |
| CC[C@@H]1CN2CCc3c([nH]c4cccc(OC)c34)[C@H]2C[C@@H]1/C(=C\OC)C(=O)OC |  |  | -3.4% | 16.8% | 1.5% | 47.1% | 0.4% |  | 0.7% |  | 14.3% | -4.8% |  | 11.1% |  |  | Activity [12]: 33.3%; Activity ([18]; filed as agonist): 68.1% |
| C=C[C@H]1CN2CCc3c([nH]c4cccc(OC)c34)[C@@H]2C[C@@H]1/C(=C\OC)C(=O)OC | 71.8 nM | 83.1 nM |  |  |  |  |  | 815 nM |  |  |  |  | 1770 nM |  | […] | 5.45 mg/kg | Ki [20]: 20 nM; Ki [21]: 32 nM; Ki [22]: 870 nM |
| O=C1c2ccccc2S(=O)(=O)N1CCCCN1CCN(c2ncccn2)CC1 [IPSAPIRONE] |  |  |  |  |  |  |  |  |  |  |  |  |  |  | 0.431 mg/kg | 3.41 mg/kg | Ki [24]: 49.7 nM; ED50 (Rattus norvegicus [25]): 7.68 mg/kg; Activity (Rattus norvegicus [26]): inactive |
| C=C[C@H]1CN2CCc3c([nH]c4cccc(O)c34)[C@@H]2C[C@@H]1/C(=C\OC)C(=O)OC | 97.7 nM | 336 nM |  |  |  |  |  |  |  |  |  |  |  |  |  |  |  |
| COC(=O)C1=COC[C@H]2CN3CCc4c([nH]c5ccccc45)[C@@H]3C[C@H]12 |  |  | 6.2% |  | 5.1% | 89.3% | -12.5% |  | 1.8% | 95.2% | -5.3% | 33.2% |  | -2.5% |  |  | Activity [18]: 36.5% |
| CC[C@@H]1CN2CC[C@@]3(O)C(=Nc4cccc(OC)c43)[C@@H]2C[C@@H]1/C(=C\OC)C(=O)OC |  |  | -1.4% | -0.8% | -0.2% |  | -18.3% |  | 19.5% |  | -13.9% | 3.1% |  | 8.2% |  |  | Activity [8]: 12.4%; Activity [12]: 1.2%; Activity [18]: 3.9% |
| CC[C@H]1CN2CCc3c([nH]c4cccc(OC)c34)[C@@H]2C[C@@H]1/C(=C\OC)C(=O)OC | 95.5 nM | 108 nM |  | 30.4% | 2.8% |  |  | 1320 nM | 1.5% | 98.7% |  |  | 5430 nM | 11.3% | 9.1 mg/kg | 5.92 mg/kg | Ki [20]: 23 nM; AUC(0-inf) [27]: 495 ng·h/mL; Ki [21]: 38.5 nM; Activity ([14]; filed as agonist): 77.9%; Activity ([15]; filed as agonist): 58.9%; ED50 (Rattus norvegicus [25]): 11.6 mg/kg |
